Results as given in patent US11446342B2, “Composite probiotics and use thereof” (INFINITUS (CHINA) COMPANY LTD., priority 2019, dated 2022).

Experiments:
[1] = test system: mice having high-fat diet induced metabolic syndrome; assay: Liver glutathione (GSH) in high-fat diet-induced metabolic syndrome; format: in vivo, C57BL/6J mice; details: intragastric daily, high-fat feed; probiotics total 1.0×10^9 CFU/mL
Protocol: (§1) The experimental animals were 48 5-week old SPF grade C57BL/6 male mice, which were purchased from Shanghai Slack Laboratory Animal Center. The high-fat feed was purchased from Nantong Trophic Animal Feed High-tech Co., Ltd. The model group was fed with TP23300 high-fat feed, and the normal control group was fed with TP23302 control feed. After the mice were adaptively feed for 7 days, the experiment started. The animals were given free access to food and water, the temperature was 22±2° C., the humidity was 55±5%, and the illumination was alternately 12 h bright and dark.
(§2) Each group contains 6 mice. The feeding environmental temperature was 20-26° C., the humidity was 40%-70% and the padding was replaced twice a week. In the Bifidobacterium adolescentis CCFM8630, Lactobacillus reuteri CCFM8631, Lactobacillus rhamnosus CCFM1044 and Lactobacillus casei CCFM711 compounding group, the ratio of viable count of Bifidobacterium adolescentis CCFM8630, Lactobacillus reuteri CCFM8631, Lactobacillus rhamnosus CCFM1044 and Lactobacillus casei CCFM711 was 1:1:1:1. Each mouse was administered intragastrically each day with probiotics with a concentration of 1.0×10^9 CFU/mL, which was resuspended in 3% sucrose solution, and the volume by intragastric administration was 0.2 mL, i.e., the total amount of probiotics administered intragastrically to each mouse was 2×10^8 CFU each day. […]

[2] = test system: mice having high-fat diet induced metabolic syndrome; assay: Liver superoxide dismutase (SOD) in high-fat diet-induced metabolic syndrome; format: in vivo, C57BL/6J mice; details: intragastric daily, high-fat feed; probiotics total 1.0×10^9 CFU/mL
Protocol: as §1, §2

In the case of `CN(CCOc1ccc(CC2SC(=O)NC2=O)cc1)c1ccccn1` (centres unmarked) [RH, rosiglitazone], the “extent of increase of liver GSH level compared with the HF group” value [1] is reported as 6.88 μmoL/g prot and the “extent of increase of liver SOD activity compared with the HF group” value [2] is reported as 70.07 U/mg prot.
